≈ marks a conversion by molar mass, not a printed value.
What was measured:
[1] = Solubility
[2] = target: T1, Human CB1 receptor (Homo sapiens, UniProt P21554); assay: hCB1 receptor binding (3H-CP55,940 displacement)
T1 construct: purchased Receptor Biology
Protocol: Human CB1 receptor from Receptor Biology (hCB1) or human CB2 receptor from BioSignal (hCB2) membranes are thawed at 37° C., passed 3 times through a 25-gauge blunt-end needle, diluted in the cannabinoid binding buffer (50 mM Tris, 2.5 mM EDTA, 5 mM MgCl2, and 0.5 mg/mL BSA fatty acid free, pH 7.4) and aliquots containing the appropriate amount of protein are distributed into 96-well plates. The IC50 of the compounds of the invention at hCB1 and hCB2 are evaluated from 10-point dose-response curves done with ^3H-CP55,940 at 20000 to 25000 dpm per well (0.17-0.21 nM) in a final volume of 300 μl. The total and non-specific binding are determined in the absence and presence of 0.2 μM of HU210 respectively. The plates are vortexed and incubated for 60 minutes at room temperature, filtered through Unifilters GF/B (presoaked in 0.1% polyethyleneimine) with the Tomtec or Packard harvester using 3 mL of wash buffer (50 mM Tris, 5 mM MgCl2, 0.5 mg BSA pH 7.0). The filters are dried for 1 hour at 55° C. The radioactivity (cpm) is counted in a TopCount (Packard) after adding 65 μl/well of MS-20 scintillation liquid.
Based on the above assays, the dissociation constant (Ki) for a particular compound of the invention towards a particular receptor is determined using the following equation: Ki=IC50/(1+[rad]/Kd),
Wherein IC50 is the concentration of the compound of the invention at which 50% displacement has been observed;
[rad] is a standard or reference radioactive ligand concentration at that moment; and
Kd is the dissociation constant of the radioactive ligand towards the particular receptor.

[3] = target: T1, Human CB1 receptor; assay: hCB1 GTPγS binding; format: biochemical; conditions: human CB1 membranes, GTPg35S binding
Protocol: Human CB1 receptor from Receptor Biology (hCB1) or human CB2 receptor membranes (BioSignal) are thawed at 37° C., passed 3 times through a 25-gauge blunt-end needle and diluted in the GTPγS binding buffer (50 mM Hepes, 20 mM NaOH, 100 mM […], 1 mM EDTA, 5 mM MgCl2, pH 7.4, 0.1% BSA). The EC50 and Emax of the compounds of the invention are evaluated from 10-point dose-response curves done in […] with the appropriate amount of membrane protein and 100000-130000 dpm of GTPg^35S per well (0.11-0.14 nM). The basal and maximal stimulated binding is determined in absence and presence of 1 μM (hCB2) or 10 μM (hCB1) Win 55,212-2 respectively. The membranes are pre-incubated for 5 minutes with 56.25 μM (hCB2) or 112.5 μM (hCB1) GDP prior to distribution in plates (15 μM (hCB2) or 30 μM (hCB1) GDP final). The plates are vortexed and incubated for 60 minutes at room temperature, filtered on Unifilters GF/B (presoaked in water) with the Tomtec or Packard harvester using 3 ml of wash buffer (50 mM Tris, 5 mM MgCl2, 50 mM NaCl, pH 7.0). The filters are dried for 1 hour at 55° C. The radioactivity (cpm) is counted in a TopCount (Packard) after adding 65 μl/well of MS-20 scintillation liquid. Antagonist reversal studies are done in the same way except that (a) an agonist dose-response curve is done in the presence of a constant concentration of antagonist, or (b) an antagonist dose-response curve is done in the presence of a constant concentration of agonist.

T1 sequence (P21554 whole entry): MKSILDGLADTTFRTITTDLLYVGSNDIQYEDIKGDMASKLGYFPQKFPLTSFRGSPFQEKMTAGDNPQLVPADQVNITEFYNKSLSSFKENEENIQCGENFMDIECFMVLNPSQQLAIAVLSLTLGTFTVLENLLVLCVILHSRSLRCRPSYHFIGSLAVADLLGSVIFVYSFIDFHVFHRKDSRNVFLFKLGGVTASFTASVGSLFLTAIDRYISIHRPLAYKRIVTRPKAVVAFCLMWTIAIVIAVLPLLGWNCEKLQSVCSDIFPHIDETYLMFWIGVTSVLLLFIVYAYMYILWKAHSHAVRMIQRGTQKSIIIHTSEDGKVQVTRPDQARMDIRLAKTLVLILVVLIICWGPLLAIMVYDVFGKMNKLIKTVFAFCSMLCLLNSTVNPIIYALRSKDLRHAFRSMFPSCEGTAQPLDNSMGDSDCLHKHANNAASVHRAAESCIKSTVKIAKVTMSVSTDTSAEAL

SMILES | solubility [1] | Ki [2] | EC50 [3]
CC(C)(C)c1nc2cc(S(=O)(=O)n3ccc(N)n3)ccc2n1CC1CCOCC1 [1-{[2-tert-Butyl-1-(tetrahydro-2H-pyran-4-ylmethyl)-1H-benzimidazol-5-yl]sulfonyl}-1H-pyrazol-3-amine] | 43 µM (≈ 18 µg/mL) | 252 nM | –
CC(C)(C)c1nc2cc(S(=O)(=O)N3CCOC(C(=O)NC4CC4)C3)ccc2n1CC1CCC(F)(F)CC1 (stereo not drawn) [4-({2-tert-Butyl-1-[(4,4-difluorocyclohexyl)methyl]-1H-benzimidazol-5-yl}sulfonyl)-N-cyclopropylmorpholine-2-carboxamide] | 42.5 µM (≈ 22.9 µg/mL) | 11.3 nM | 10.4 nM
CC(C)(C)c1nc2cc(S(=O)(=O)N3CCC[C@H](C(=O)NC4CC4)C3)ccc2n1CC1CCC(F)(F)CC1 [(3S)-1-({2-tert-Butyl-1-[(4,4-difluorocyclohexyl)methyl]-1H-benzimidazol-5-yl}sulfonyl)-N-cyclopropylpiperidine-3-carboxamide] | 29.4 µM (≈ 15.8 µg/mL) | 2.05 nM | 1.71 nM
CNC(=O)c1cnn(S(=O)(=O)c2ccc3c(c2)nc(C(C)(C)C)n3CC2CCC(F)(F)CC2)c1 [1-({2-tert-Butyl-1-[(4,4-difluorocyclohexyl)methyl]-1H-benzimidazol-5-yl}sulfonyl)-N-methyl-1H-pyrazole-4-carboxamide] | 2.52 µM (≈ 1.24 µg/mL) | 1.61 nM | 1.21 nM
CC(C)(C)c1nc2cc(S(=O)(=O)n3cc(C(=O)NC4CC4)cn3)ccc2n1CC1CCC(F)(F)CC1 [1-({2-tert-Butyl-1-[(4,4-difluorocyclohexyl)methyl]-1H-benzimidazol-5-yl}sulfonyl)-N-cyclopropyl-1H-pyrazole-4-carboxamide] | 6.16 µM (≈ 3.2 µg/mL) | 0.88 nM | 0.58 nM
CCNC(=O)c1cnn(S(=O)(=O)c2ccc3c(c2)nc(C(C)(C)C)n3CC2CCOCC2)c1 [1-{[2-tert-Butyl-1-(tetrahydro-2H-pyran-4-ylmethyl)-1H-benzimidazol-5-yl]sulfonyl}-N-ethyl-1H-pyrazole-4-carboxamide] | 337 µM (≈ 160 µg/mL) | 14.6 nM | 57.2 nM
CCNC(=O)c1ccn(S(=O)(=O)c2ccc3c(c2)nc(C(C)(F)F)n3CC2CCOCC2)c1 [1-{[2-(1,1-Difluoroethyl)-1-(tetrahydro-2H-pyran-4-ylmethyl)-1H-benzimidazol-5-yl]sulfonyl}-N-ethyl-1H-pyrrole-3-carboxamide] | 7.45 µM (≈ 3.58 µg/mL) | 88 nM | –
CC(C)NC(=O)c1cnn(S(=O)(=O)c2ccc3c(c2)nc(C(C)(C)C)n3CC2CCC(F)(F)CC2)c1 [1-({2-tert-Butyl-1-[(4,4-difluorocyclohexyl)methyl]-1H-benzimidazol-5-yl}sulfonyl)-N-isopropyl-1H-pyrazole-4-carboxamide] | 0.26 µM (≈ 0.136 µg/mL) | 1.82 nM | 3.41 nM
CC(C)(C)c1nc2cc(S(=O)(=O)N3CCCC(c4ccccc4)C3)ccc2n1CC1CCOCC1 (stereo not drawn) [2-tert-Butyl-5-[(3-phenylpiperidin-1-yl)sulfonyl]-1-(tetrahydro-2H-pyran-4-ylmethyl)-1H-benzimidazole] | 0.79 µM (≈ 0.392 µg/mL) | 278 nM | –
CCNC(=O)c1ccn(S(=O)(=O)c2ccc3c(c2)nc(C(C)(C)C)n3CC2CCOCC2)c1 [1-{[2-tert-butyl-1-(tetrahydro-2H-pyran-4-ylmethyl)-1H-benzimidazol-5-yl]sulfonyl}-N-ethyl-1H-pyrrole-3-carboxamide] | 28 µM (≈ 13.2 µg/mL) | 24.2 nM | 84.2 nM
CC(C)(C)c1nc2cc(S(=O)(=O)n3ccc(C(=O)NC4CC4)c3)ccc2n1CC1CCOCC1 [1-{[2-tert-Butyl-1-(tetrahydro-2H-pyran-4-ylmethyl)-1H-benzimidazol-5-yl]sulfonyl}-N-cyclopropyl-1H-pyrrole-3-carboxamide] | 5.64 µM (≈ 2.73 µg/mL) | 5.68 nM | 10.5 nM
CCNC(=O)[C@@H]1CN(S(=O)(=O)c2ccc3c(c2)nc(C(C)(C)C)n3CC2CCC(F)(F)CC2)CCO1 [(2S)-4-({2-tert-butyl-1-[(4,4-difluorocyclohexyl)methyl]-1H-benzimidazol-5-yl}sulfonyl)-N-ethylmorpholine-2-carboxamide] | 43.4 µM (≈ 22.8 µg/mL) | 18 nM | 43.8 nM
CC(C)(C)c1nc2cc(S(=O)(=O)N3CCOCC3)ccc2n1CC1CCOCC1 [2-tert-Butyl-5-(morpholin-4-ylsulfonyl)-1-(tetrahydro-2H-pyran-4-ylmethyl)-1H-benzimidazole] | 128 µM (≈ 54.1 µg/mL) | 1530 nM | –
CC(F)(F)c1nc2cc(S(=O)(=O)n3ccc(C(=O)NC4CC4)c3)ccc2n1CC1CCOCC1 [N-Cyclopropyl-1-{[2-(1,1-difluoroethyl)-1-(tetrahydro-2H-pyran-4-ylmethyl)-1H-benzimidazol-5-yl]sulfonyl}-1H-pyrrole-3-carboxamide] | 6.2 µM (≈ 3.05 µg/mL) | 19.1 nM | 17.8 nM
CNC(=O)C1CCN(S(=O)(=O)c2ccc3c(c2)nc(C(C)(C)C)n3CC2CCOCC2)C1 (stereo not drawn) [1-{[2-tert-Butyl-1-(tetrahydro-2H-pyran-4-ylmethyl)-1H-benzimidazol-5-yl]sulfonyl}-N-methylpyrrolidine-3-carboxamide] | 2600 µM (≈ 1200 µg/mL) | 833 nM | –
CC(C)(C)c1nc2cc(S(=O)(=O)N3CCC(c4ccccc4)C3)ccc2n1CC1CCOCC1 (stereo not drawn) [2-tert-Butyl-5-[(3-phenylpyrrolidin-1-yl)sulfonyl]-1-(tetrahydro-2H-pyran-4-ylmethyl)-1H-benzimidazole] | 7.29 µM (≈ 3.51 µg/mL) | 110 nM | –
CCCNC(=O)[C@H]1CCCN(S(=O)(=O)c2ccc3c(c2)nc(C(C)(C)C)n3CC2CCC(F)(F)CC2)C1 [(3S)-1-({2-tert-Butyl-1-[(4,4-difluorocyclohexyl)methyl]-1H-benzimidazol-5-yl}sulfonyl)-N-propylpiperidine-3-carboxamide] | 16.8 µM (≈ 9.04 µg/mL) | 2.03 nM | 1.69 nM
